Data: ChEMBL document CHEMBL1201862, “PubChem BioAssay data set” (2004)
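Where inhibition never reached the appropriate level, the endpoint shown equals the highest concentration tested. Otherwise, values were interpolated linearly from a five-concentration, 48-hour dose response in 96-well plates. Here, GI50 denotes the concentration required for 50% inhibition of growth.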 Active and inactive are the calls of the source. Cut-off read from the data, not from the text of the source: active = GI50 up to about 1.1 µM and inactive = higher.

Columns and labels:
Assay in all cases: DTP human tumour cell line panel, 48 h
DMS-114 = tested on: DMS-114
COLO 205 = tested on: COLO 205
A498 = tested on: A498
SNB-78 = tested on: SNB-78
SR = tested on: SR
OVCAR-5 = tested on: OVCAR-5
DMS-273 = tested on: DMS-273
SW-620 = tested on: SW-620
Malme-3M = tested on: Malme-3M
DLD-1 = tested on: DLD-1
HL-60 = tested on: HL-60
ACHN = tested on: ACHN
HCC 2998 = tested on: HCC 2998
SK-MEL-28 = tested on: SK-MEL-28
RXF 393 = tested on: RXF 393
NCI-H460 = tested on: NCI-H460
SK-MEL-2 = tested on: SK-MEL-2
NCI-H522 = tested on: NCI-H522
UACC-62 = tested on: UACC-62
NCI/ADR-RES = tested on: NCI/ADR-RES

| SMILES | GI50 (DMS-114) | GI50 (COLO 205) | GI50 (A498) | GI50 (SNB-78) | GI50 (SR) | GI50 (OVCAR-5) | GI50 (DMS-273) | GI50 (SW-620) | GI50 (Malme-3M) | GI50 (DLD-1) | GI50 (HL-60) | GI50 (ACHN) | GI50 (HCC 2998) | GI50 (SK-MEL-28) | GI50 (RXF 393) | GI50 (NCI-H460) | GI50 (SK-MEL-2) | GI50 (NCI-H522) | GI50 (UACC-62) | GI50 (NCI/ADR-RES) |
| --- | --- | --- | --- | --- | --- | --- | --- | --- | --- | --- | --- | --- | --- | --- | --- | --- | --- | --- | --- | --- |
| CCOC(=O)/C=C(\C)c1ccc(Cl)cc1 | > 100 µM (inactive) | > 100 µM (inactive) | > 100 µM (inactive) | > 100 µM (inactive) | > 100 µM (inactive) | > 100 µM (inactive) | > 100 µM (inactive) | > 100 µM (inactive) | > 100 µM (inactive) | > 100 µM (inactive) | > 100 µM (inactive) | > 100 µM (inactive) | > 100 µM (inactive) | > 100 µM (inactive) | > 100 µM (inactive) | > 100 µM (inactive) | > 100 µM (inactive) |  |  |  |
| O=C(Nc1cccc(O)c1)C(=O)C(C(=O)c1ccccc1F)C1OC(=O)c2ccccc21 (stereo not given) | 13.8 µM (inactive) | 23.2 µM (inactive) | 66.5 µM (inactive) | 24.2 µM (inactive) | 24.9 µM (inactive) | 57 µM (inactive) | 24.2 µM (inactive) | 35.7 µM (inactive) |  | 34.2 µM (inactive) | 28.7 µM (inactive) | 37.7 µM (inactive) | 22.2 µM (inactive) | 31 µM (inactive) | 18.5 µM (inactive) | 29.4 µM (inactive) | 20.9 µM (inactive) | 17.3 µM (inactive) | 16.9 µM (inactive) |  |
| CSc1cc(-c2cc3ccccc3o2)oc(=O)c1C#N | 7.43 µM (inactive) | > 100 µM (inactive) | > 100 µM (inactive) | 88.1 µM (inactive) | 15.5 µM (inactive) | 12.2 µM (inactive) | > 100 µM (inactive) | > 100 µM (inactive) | 3.6 µM (inactive) | > 100 µM (inactive) | 18.9 µM (inactive) | > 100 µM (inactive) | > 100 µM (inactive) | > 100 µM (inactive) | 71.4 µM (inactive) | > 100 µM (inactive) | > 100 µM (inactive) |  |  |  |
| CN(CCCNc1ccc2ncn3c4ccccc4c(=O)c1c23)CCCN1C(=O)c2cccc3cc([N+](=O)[O-])cc(c23)C1=O |  | 0.00815 µM (active) | 1.4 µM (inactive) |  | 0.001 µM (active) | 1.14 µM (inactive) |  | 0.00325 µM (active) | 0.0244 µM (active) |  | 0.0358 µM (active) | 0.0012 µM (active) | 0.0115 µM (active) | 1.12 µM (inactive) | 0.0267 µM (active) | 0.00295 µM (active) | 1.58 µM (inactive) | 0.00775 µM (active) |  | 0.0376 µM (active) |
| O=C1Sc2ccccc2/C1=N/Nc1ccccc1[N+](=O)[O-] |  | > 100 µM (inactive) | > 100 µM (inactive) |  | > 100 µM (inactive) | > 100 µM (inactive) |  | > 100 µM (inactive) | 94.8 µM (inactive) |  | > 100 µM (inactive) | 93.1 µM (inactive) | > 100 µM (inactive) | > 100 µM (inactive) |  | > 100 µM (inactive) | > 100 µM (inactive) | > 100 µM (inactive) | > 100 µM (inactive) |  |
| O=C1C(=O)c2ccccc2C=C1[N+](=O)[O-] |  | > 100 µM (inactive) | > 100 µM (inactive) |  | 29.4 µM (inactive) | > 100 µM (inactive) |  | 32.9 µM (inactive) |  |  | 22.7 µM (inactive) | > 100 µM (inactive) | 80.9 µM (inactive) | > 100 µM (inactive) | 24.4 µM (inactive) | 30.2 µM (inactive) | 28.2 µM (inactive) | 34.9 µM (inactive) | 27.7 µM (inactive) | 23 µM (inactive) |
| C=C1C[C@@H]2C[C@@H](C)CC(O)[C@]2(CCCN)C1O (stereo not given in full) | > 100 µM (inactive) | > 100 µM (inactive) | > 100 µM (inactive) | > 100 µM (inactive) | > 100 µM (inactive) | > 100 µM (inactive) | > 100 µM (inactive) | > 100 µM (inactive) | > 100 µM (inactive) | > 100 µM (inactive) | > 100 µM (inactive) | > 100 µM (inactive) | > 100 µM (inactive) | > 100 µM (inactive) | > 100 µM (inactive) | > 100 µM (inactive) | > 100 µM (inactive) | > 100 µM (inactive) | > 100 µM (inactive) |  |
| O=C1CNc2cc(N3CCCCC3)ccc2N1 |  |  |  |  | 74.6 µM (inactive) | > 100 µM (inactive) |  | > 100 µM (inactive) | > 100 µM (inactive) |  | > 100 µM (inactive) | > 100 µM (inactive) | > 100 µM (inactive) | > 100 µM (inactive) |  | > 100 µM (inactive) | > 100 µM (inactive) | > 100 µM (inactive) | 25.4 µM (inactive) | > 100 µM (inactive) |
| COc1cc(O)c2c(c1)C(=O)c1cc(C)cc(O)c1C2=O [PHYSCION] | > 100 µM (inactive) | > 100 µM (inactive) | > 100 µM (inactive) | > 100 µM (inactive) | > 100 µM (inactive) | > 100 µM (inactive) |  | > 100 µM (inactive) | > 100 µM (inactive) | > 100 µM (inactive) | > 100 µM (inactive) | > 100 µM (inactive) | > 100 µM (inactive) | > 100 µM (inactive) |  | > 100 µM (inactive) | > 100 µM (inactive) | 78.5 µM (inactive) | > 100 µM (inactive) |  |
